According to ChEMBL document CHEMBL1201862, “PubChem BioAssay data set” (2004):
“And” between values parts separate entries of the source, which are not always exact repeats. Equal values may be shown once.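 Compound exposure: 48 hours, 5 concentrations, 96-well plates. The concentration for 50% growth inhibition is given as GI50.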 The source made the active and inactive calls. Cut-off read from the data, not from the text of the source: active = GI50 up to about 1.1 µM and inactive = higher.

Key:
Test in all cases: DTP human tumour cell line panel, 48 h
HOP-62 = system: HOP-62
CAKI-1 = system: CAKI-1
NCI/ADR-RES = system: NCI/ADR-RES
MDA-MB-231 = system: MDA-MB-231
UACC-257 = system: UACC-257
RPMI-8226 = system: RPMI-8226
SK-MEL-2 = system: SK-MEL-2
SNB-75 = system: SNB-75
HT-29 = system: HT-29
MOLT-4 = system: MOLT-4
786-0 = system: 786-0
SK-MEL-28 = system: SK-MEL-28
T47D = system: T47D
MDA-N = system: MDA-N
RXF 393 = system: RXF 393
EKVX = system: EKVX
OVCAR-8 = system: OVCAR-8
LOX IMVI = system: LOX IMVI
CCRF-CEM = system: CCRF-CEM
UO-31 = system: UO-31

Compound	GI50 (HOP-62)	GI50 (CAKI-1)	GI50 (NCI/ADR-RES)	GI50 (MDA-MB-231)	GI50 (UACC-257)	GI50 (RPMI-8226)	GI50 (SK-MEL-2)	GI50 (SNB-75)	GI50 (HT-29)	GI50 (MOLT-4)	GI50 (786-0)	GI50 (SK-MEL-28)	GI50 (T47D)	GI50 (MDA-N)	GI50 (RXF 393)	GI50 (EKVX)	GI50 (OVCAR-8)	GI50 (LOX IMVI)	GI50 (CCRF-CEM)	GI50 (UO-31)
Nc1ncc(N)c(NCC2(CO)CC(CCc3ccccc3)C2)n1 (stereo not drawn)	14.7 µM (inactive)	7.73 µM (inactive)	12.4 µM (inactive)	4.65 µM (inactive)	8.85 µM (inactive)	0.482 µM (active)	6.95 µM (inactive)	12.6 µM (inactive)	6.21 µM (inactive)	0.393 µM (active)	8.47 µM (inactive)	14.4 µM (inactive)	1.11 µM (active)	8.28 µM (inactive)	12.5 µM (inactive)	8.47 µM (inactive)	10.5 µM (inactive)	3.46 µM (inactive)	0.413 µM (active)	1.19 µM (inactive)
CC(C)C(Sc1nc(N)nc2nc[nH]c12)C(=O)O (stereo not drawn)	> 100 µM (inactive)	> 100 µM (inactive)	> 100 µM (inactive)	> 100 µM (inactive)	> 100 µM (inactive)	> 100 µM (inactive)	> 100 µM (inactive)	> 100 µM (inactive)	> 100 µM (inactive)		> 100 µM (inactive)	> 100 µM (inactive)	> 100 µM (inactive)	> 100 µM (inactive)	> 100 µM (inactive)	> 100 µM (inactive)	> 100 µM (inactive)	> 100 µM (inactive)	> 100 µM (inactive)	> 100 µM (inactive)
CCOC(=O)c1c(N2CCCC2)[nH]c(=O)c(C(c2ccc(Cl)c([N+](=O)[O-])c2)c2c(O)c(C(=O)OCC)c(N3CCCC3)[nH]c2=O)c1O	27.4 µM (inactive)	24.4 µM (inactive)	28.7 µM (inactive)	22 µM (inactive)	41.5 µM (inactive)	42.9 µM (inactive)		9.86 µM (inactive)		46.6 µM (inactive)	27.2 µM (inactive)	35.3 µM (inactive)	28.1 µM (inactive)	24.5 µM (inactive)	31.7 µM (inactive)	33.7 µM (inactive)	15.5 µM (inactive)	19.3 µM (inactive)	23.6 µM (inactive)	24.7 µM (inactive)
CCC1(CC)C(=O)N(C(=O)c2cc(OC)c(OC)c(OC)c2)N(C(=O)c2cc(OC)c(OC)c(OC)c2)C1=O	> 50 µM (inactive)	> 50 µM (inactive)	> 50 µM (inactive)	> 50 µM (inactive)	> 50 µM (inactive)	> 50 µM (inactive)	> 50 µM (inactive)	42.9 µM (inactive)	> 50 µM (inactive)		> 50 µM (inactive)	> 50 µM (inactive)	> 50 µM (inactive)	> 50 µM (inactive)	> 50 µM (inactive)	> 50 µM (inactive)	> 50 µM (inactive)	> 50 µM (inactive)	> 50 µM (inactive)	> 50 µM (inactive)
O=[N+]([O-])/C(Cl)=C/C(=C1/Nc2ccccc2O1)[N+](=O)[O-]	33.7 µM (inactive)	21.4 µM (inactive)	24.3 µM (inactive)	30.1 µM (inactive)	5.79 µM (inactive)	28.5 µM (inactive)		14.1 µM (inactive)	32.8 µM (inactive)	19.8 µM (inactive)	31.8 µM (inactive)	19.5 µM (inactive)	32.6 µM (inactive)	18.5 µM (inactive)	18.1 µM (inactive)	18.8 µM (inactive)	17.9 µM (inactive)	8.13 µM (inactive)	13.3 µM (inactive)	15.7 µM (inactive)
Cc1ccc(/C=N/NC2=NCCN2)s1	> 100 µM (inactive)	> 100 µM (inactive)	> 100 µM (inactive)	> 100 µM (inactive)	> 100 µM (inactive)	> 100 µM (inactive)	> 100 µM (inactive)	> 100 µM (inactive)	> 100 µM (inactive)	> 100 µM (inactive)	> 100 µM (inactive)	> 100 µM (inactive)	> 100 µM (inactive)	> 100 µM (inactive)	> 100 µM (inactive)	> 100 µM (inactive)	> 100 µM (inactive)	> 100 µM (inactive)		44.9 µM (inactive)
COc1ccc2[nH]cc([C@@H]3C4CCC(C4)[C@H]3NCc3cccc(CN[C@H]4C5CCC(C5)[C@@H]4c4c[nH]c5ccc(OC)cc45)c3)c2c1	1.62 µM (inactive) and 1.6 µM (inactive)	1.6 µM (inactive) and 1.79 µM (inactive)	1.55 µM (inactive) and 1.68 µM (inactive)	1.44 µM (inactive) and 1.2 µM (inactive)	1.38 µM (inactive) and 1.64 µM (inactive)	531 nM (active) and 369 nM (active)	1.59 µM (inactive) and 1.55 µM (inactive)	1.26 µM (inactive) and 1.22 µM (inactive)	230 nM (active) and 218 nM (active)	577 nM (active) and 467 nM (active)	731 nM (active) and 708 nM (active)		1.72 µM (inactive) and 1.99 µM (inactive)	1.15 µM (inactive) and 933 nM (active)	1.36 µM (inactive) and 1.66 µM (inactive)	1.51 µM (inactive) and 1.52 µM (inactive)	891 nM (active) and 998 nM (active)	244 nM (active) and 235 nM (active)	366 nM (active) and 352 nM (active)	1.36 µM (inactive) and 1.52 µM (inactive)
